Source: US5866574A, “Pancreatitis remedy” (Kyowa Hakko Kogyo Co., Ltd., priority 1997, dated 1999)
Where a name gives a salt, the structure may show the parent alone.

How the values were obtained:
[1] = test system: murine cerulein pancreatitis; assay: effects on murine cerulein pancreatitis (serum amylase, lipase, GPT); assay type: in vivo, murine (female BALB/C mice); details: mean±SEM
Method: Test of the effects on murine cerulein pancreatitis
Experiment was conducted in accordance with the method described in Digestive Diseases and Science, 37, 274-279 (1992). Female BALB/C mice weighing 17 to 24 g were fasted for 16 hours. Water was provided ad libitum. Acute pancreatitis was induced by the administration of seven intraperitoueally injections of cerulein (50 μg/kg) at hourly intervals. Blood was drawn from abdominal vein, 3, 6, and 9 hours after the first injection of cerulein in case of Compound 1, Compound 2 and compound 3, while in case of Compound 4, blood was drawn therefrom 7 hours after the first injection of cerulein. Blood samples were centrifuged at 4° C. and 3,000 rpm for 10 minutes, and serum was separated. Serum amylase (Amy), lipase (Lip), and glutamic pyruvic transaminase (GPT) activities were measured. For Compound 1, Compound 2 and Compound 3, serum Amy was assayed with AU500/550 specific reagent "Katayama" Amy test(Katayama Chemical Industry Co., Ltd.); for Compound 4, serum Amy was assayed with "Rikitech P-AMY EPS" of BM pancreas-related reagent series (Boehringer Mannheim K. K.). Serum GPT was assayed with "Katayama" GPT test (Katayama Chemical Industry, Co., Ltd.). Serum Lip was assayed with an auto-analyzer reagent "Kyowa" Determiner Lipase (Kyowa Medex, Co., Ltd.). Compound 1, Compound 2, and Compound 3 were suspended in 0.5% methyl cellulose, and […] before the first injection of cerulein, the resulting suspension was orally given at a dose of 10 ml/kg. The solvent (0.5% methyl cellulose) was similarly given to a control group. Compound 4 was dissolved in distilled water, which was adjusted to pH 2 with 0.1N HCl, and then the resulting solution was adjusted to pH 4.5 with 0.1N sodium hydroxide. Compound 4 was orally administered one hour before the first injection of cerulein. The solvent (distilled water for injections, after adjustment to pH 4.5 with 0.1N HCl) was similarly given to a control group.
Results are expressed as means±SEM where appropriate. Difference between normal group and control group were evaluated using the Wilcoxon's rank sum test. And for differences between control group and test compound-treated group, the Steel's test was used for Compound 1 and the Wilcoxon's rank sum test was used for Compounds 2, Compound 3 and Compound 4.
The effects of Compound 1, Compound 2 and Compound 3 on serum Amy, serum Lip and serum GPT are shown in Tables 2, 3 and 4; and the effect of Compound 4 are shown in Table 5.

[2] = test system: dd-strain male mice; assay: Acute Toxicity Test; assay type: in vivo; details: mortality seven days after administration
Description: Test compounds were orally or intraperitoneally administered to groups of dd-strain male mice weighing 20±1 g, each group consisting of three mice.

[3] = test system: adenosine uptake; details: Nucleosides & Nucleotides, 10, 975-982 (1991); cited from earlier work
[4] = 10 mg/kg oral, 3 h after the first injection of cerulein
[5] = 10 mg/kg oral, 6 h after the first injection of cerulein
[6] = 10 mg/kg oral, 9 h after the first injection of cerulein
[7] = 30 mg/kg oral, 3 h after the first injection of cerulein
[8] = 30 mg/kg oral, 6 h after the first injection of cerulein
[9] = 30 mg/kg oral, 9 h after the first injection of cerulein
[10] = 300 mg/kg oral, 3 h after the first injection of cerulein
[11] = 300 mg/kg oral, 6 h after the first injection of cerulein
[12] = 300 mg/kg oral, 9 h after the first injection of cerulein
[13] = 10 mg/kg oral, 7 hours after the first injection of cerulein

CCOc1cc2nc(N3CCOCC3)nc(N3CCC(n4c(=O)c5cc(C)ccc5n(C)c4=O)CC3)c2cc1OCC [Compound 1, 3-[1-(6,7-Diethoxy-2-morpholino-4-quinazolynyl)-4-piperidinyl]-1,2,3,4-tetrahydro-1,6-dimethyl-2,4-dioxoquinazoline hydrochloride salt]
Serum GPT [1, 4]: 37 ± 3 IU/L
Serum amylase [1, 4]: 4283 ± 245 IU/L
Serum lipase [1, 4]: 55 ± 3 IU/L
Serum GPT [1, 5]: 50 ± 3 IU/L
Serum amylase [1, 5]: 4967 ± 167 IU/L
Serum lipase [1, 5]: 91 ± 22 IU/L
Serum GPT [1, 6]: 76 ± 5 IU/L
Serum amylase [1, 6]: 14817 ± 1459 IU/L
Serum lipase [1, 6]: 466 ± 74 IU/L
Serum GPT [1, 7]: 32 ± 3 IU/L
Serum amylase [1, 7]: 4133 ± 264 IU/L
Serum lipase [1, 7]: 58 ± 5 IU/L
Serum GPT [1, 8]: 51 ± 6 IU/L
Serum amylase [1, 8]: 5200 ± 274 IU/L
Serum lipase [1, 8]: 81 ± 8 IU/L
Serum GPT [1, 9]: 52 ± 5 IU/L
Serum amylase [1, 9]: 5658 ± 682 IU/L
Serum lipase [1, 9]: 95 ± 15 IU/L
minimum lethal dose (MLD) ([2]; intraperitoneal dosing): greater than 100 mg/kg
minimum lethal dose (MLD) ([2]; oral dosing): greater than 1000 mg/kg

NC(=O)C1CN(CCCCC(c2ccc(F)cc2)c2ccc(F)cc2)CCN1CC(=O)Nc1c(Cl)cc(N)cc1Cl (stereo not drawn) [Compound 2, 2-Aminocarbonyl-N-(4-amino-2,6-dichlorophenyl)-4-[5,5-bis(4-fluorophenyl)pentyl]-1-piperazine acetamide]
Serum GPT [1, 10]: 55 ± 2 IU/L
Serum amylase [1, 10]: 4967 ± 291 IU/L
Serum lipase [1, 10]: 238 ± 9 IU/L
Serum GPT [1, 11]: 59 ± 6 IU/L
Serum amylase [1, 11]: 4417 ± 305 IU/L
Serum lipase [1, 11]: 217 ± 51 IU/L
Serum GPT [1, 12]: 129 ± 23 IU/L
Serum amylase [1, 12]: 9517 ± 23 IU/L
Serum lipase [1, 12]: 726 ± 23 IU/L
minimum lethal dose (MLD) ([2]; intraperitoneal dosing): greater than 100 mg/kg
minimum lethal dose (MLD) ([2]; oral dosing): greater than 300 mg/kg

NC(=O)C1CN(Cc2nc(-c3ccccc3)c(-c3ccccc3)o2)CCN1CC(=O)Nc1c(Cl)cc([N+](=O)[O-])cc1Cl (stereo not drawn) [Compound 3, 2-Aminocarbonyl-N-(2,6-dichloro-4-nitrophenyl)-4-[(4,5-diphenyl-2-oxazolyl)methyl]-1-piperazine acetamide . dihydrochloride salt]
Serum GPT [1, 7]: 64 ± 11 IU/L
Serum amylase [1, 7]: 4050 ± 309 IU/L
Serum lipase [1, 7]: 243 ± 40 IU/L
Serum GPT [1, 8]: 40 ± 1 IU/L
Serum amylase [1, 8]: 3733 ± 149 IU/L
Serum lipase [1, 8]: 135 ± 6 IU/L
Serum GPT [1, 9]: 59 ± 7 IU/L
Serum amylase [1, 9]: 3958 ± 146 IU/L
Serum lipase [1, 9]: 200± 13 IU/L

CCOc1cc2c(N3CCC(n4c(=O)c5cc(C)ccc5n(C)c4=O)CC3)nc(N3CCOCC3)nc2cc1OCCO [Compound 4, 3-[1-[6-ethoxy-7-(2-hidroxyethyl)oxy-2-morpholino-4-quinazolynyl]-4-piperidinyl]-1,2,3,4-tetrahydro-1,6-dimethyl-2,4-dioxoquinazoline]
Serum Amirase ([1]; 10 mg/kg oral, 7 hours after the first injection of cerulein, P-AMY assay): 14690 ± 922 IU/l
Serum GPT [1, 13]: 67 ± 2 IU/l
Serum lipase [1, 13]: 195 ± 23 IU/l

NC(=O)C1CN(CCCCC(c2ccc(F)cc2)c2ccc(F)cc2)CCN1CC(=O)Nc1c(Cl)cc(N)cc1Cl (stereo not drawn) [Compound R75231]
action of inhibiting adenosine uptake [3]: have an action of inhibiting adenosine uptake

COc1cc(C(=O)OCCCN2CCCN(CCCOC(=O)c3cc(OC)c(OC)c(OC)c3)CC2)cc(OC)c1OC [dilazep]
action of inhibiting adenosine uptake [3]: have an action of inhibiting adenosine uptake

OCCN(CCO)c1nc(N2CCCCC2)c2nc(N(CCO)CCO)nc(N3CCCCC3)c2n1 [dipyridamole]
action of inhibiting adenosine uptake [3]: have an action of inhibiting adenosine uptake

COc1cc(C(=O)OCCCN(C)CCN(C)CCCOC(=O)c2cc(OC)c(OC)c(OC)c2)cc(OC)c1OC [hexobendine]
action of inhibiting adenosine uptake [3]: have an action of inhibiting adenosine uptake

Cc1cccc(C)c1NC(=O)CN1CCN(CCCC(c2ccc(F)cc2)c2ccc(F)cc2)CC1 [lidoflazine]
action of inhibiting adenosine uptake [3]: have an action of inhibiting adenosine uptake
